Data: US10392352B2, “Etomidate derivative and intermediate, preparation method and use thereof” (JIANGSU NHWALUOKANG PHARMACEUTICAL RESEARCH AND DEVELOPMENT …, priority 2015, dated 2019)

Assays:
KM mice (male) = experiment: Test of ED50 and LD50 of anesthesia in mice (sequential method; disappearance of righting reflex or death); type: in vivo; settings: for ED50: Mus musculus; for TI: TI=LD50/ED50, mice
Procedure: (§1) Test of ED50 and LD50 of the etomidate derivative of the present invention in mice
(§2) Accurately weighed compounds 14, 15, 16 and 18 (5 mg for each of the compounds) were placed in 10 ml centrifuge tubes, respectively. Then 1 ml blank emulsion (20% soybean oil blank emulsion) was added to each tube, and the mixture was sonicated in an ultrasonic apparatus for several minutes to obtain a 5 mg/ml homogeneous emulsion, which was drawn by an injection syringe right before use. An etomidate fat emulsion injection (commercially available, 2 mg/ml) was used as control. The administration concentration in mice was fixed, and the administration volume varied according to actual situation.
(§3) ED50 and LD50 values concerning anesthesia were determined using a sequential method. Administrations in this test were performed on qualified healthy KM mice (male) by injection at a constant rate via caudal vein for 10 seconds. Before the test, a preliminary trial test was conducted to determine an approximate dosage (administration volume) that leads to anesthetization (or death) in animals, which was then set as the intermediate dosage in the formal test. 2-3 Dosage groups were set above and below the intermediate dosage group with an interval of 0.8. The disappearance of righting reflex or death was used as indicators of pharmacological efficacy or toxicity, respectively. The formal test began with the administration of the intermediate dosage. If animals were anesthetized, a lower dosage was administered; otherwise if animals were not anesthetized, a higher dosage was administered, until the cycle was repeated for 3-4 times. LD50 and ED50 values of anesthesia were calculated by a sequential method on aot425 software. TI was calculated according to the following equation: TI=LD50/ED50.

[1] = as above; type: in vivo; settings: mouse, in vivo; male KM mice, caudal vein injection over 10 s, death, n = 10-20; range in brackets
Procedure: as §1, §2, §3

mice = experiment: Influence on the blood pressure and followed-up reactions after recovery in mice anesthesia test; type: in vivo; settings: for tail bleeding: few / tail bleeding: much / tail bleeding: none / tremor / grooming: after administration & before anesthesia
Male Kunming mice = experiment: Test for latent period and persistent period of anesthesia in mice; type: in vivo; settings: 6 mg/kg (3*ED50), caudal vein, n = 5; for Latent period: time for disappearance of righting reflex; for Persistent period: time for recovery
Procedure: Test of the etomidate derivative of the present invention for latent period and persistent period of anesthesia in mice
Male Kunming mice were divided into groups, 5 for each group. The test drug was administered by injection at a constant rate via caudal vein for 10 seconds. The time for disappearance of righting reflex (latent period) and the time for recovery (persistent period) were recorded.

[2] = test system: secretion of cortisol and/or corticosterone; settings: background, literature; cited from earlier work
11β-hydroxylase = target: T1, 11β-hydroxylase (Homo sapiens, UniProt P15538); settings: background statement; cited from earlier work
T1 sequence (P15538 25-503): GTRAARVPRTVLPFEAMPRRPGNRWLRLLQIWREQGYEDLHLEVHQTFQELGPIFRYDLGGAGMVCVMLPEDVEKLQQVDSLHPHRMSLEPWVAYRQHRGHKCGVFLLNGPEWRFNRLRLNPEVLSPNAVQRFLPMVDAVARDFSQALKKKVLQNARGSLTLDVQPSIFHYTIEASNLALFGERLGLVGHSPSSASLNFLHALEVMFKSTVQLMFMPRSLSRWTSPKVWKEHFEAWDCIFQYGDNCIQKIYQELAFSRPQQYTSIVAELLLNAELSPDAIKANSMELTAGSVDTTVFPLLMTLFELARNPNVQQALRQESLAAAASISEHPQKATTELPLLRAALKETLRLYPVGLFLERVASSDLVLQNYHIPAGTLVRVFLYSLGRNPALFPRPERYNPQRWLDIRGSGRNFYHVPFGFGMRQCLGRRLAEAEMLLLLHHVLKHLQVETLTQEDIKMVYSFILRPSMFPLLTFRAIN

[3] = background, literature; cited from earlier work

| SMILES | ED50 (KM mice (male)) [mg/kg] | TI (KM mice (male)) | LD50 [1] [mg/kg] | tail bleeding: few (mice) [%] | tail bleeding: much (mice) [%] | tail bleeding: none (mice) [%] | tremor (mice) [%] | quiet (mice; post-recovery) [%] | Walking time (Male Kunming mice) [s] | Latent period (Male Kunming mice) [s] | Persistent period (Male Kunming mice) [s] | grooming (mice) [%] | jump (mice; post-recovery) [%] | inhibitory effect on the secretion of cortisol and/or corticosterone [2] | inhibitory effect on 11β-hydroxylase (11β-hydroxylase) | convulsion (mice; post-recovery) [%] | anesthetic effect / activity [3] | duration of action [3] |
| --- | --- | --- | --- | --- | --- | --- | --- | --- | --- | --- | --- | --- | --- | --- | --- | --- | --- | --- |
| COC(=O)c1c(F)ncn1[C@H](C)c1ccccc1 [Compound 15, methyl R-1-(1-phenethyl)-1H-4-fluoroimidazole-5-carboxylate] | 2 | 24 | 48.4 | 50 | 40 | 10 | 70 | 100 | 68.80 ± 30.10 | 5.90 ± 0.88 | 83.60 ± 29.13 | – | – | – | – | – | – | – |
| CCOC(=O)c1c(F)ncn1[C@H](C)c1ccccc1 [Compound 16, ethyl R-1-(1-phenethyl)-1H-4-fluoroimidazole-5-carboxylate] | 2 | 23 | 46.5 | 60 | 30 | 10 | 70 | 80 | 98.10 ± 63.96 | 5.80 ± 0.79 | 82.10 ± 20.18 | 10 | 20 | – | – | – | – | – |
| CCOC(=O)c1cncn1[C@H](C)c1ccccc1 [Etomidate, ethyl R-(+)-1-(1-phenethyl)-1H-imidazole-5-carboxylate] | 2 | 25 | 50.3 | 50 | 10 | 40 | 80 | 50 | 156.30 ± 120.78 | 5.40 ± 0.52 | 175.50 ± 100.09 | 20 | 40 | reduce the secretion | inhibitory effect | 10 | – | – |
| COC(=O)CCOC(=O)c1cncn1[C@H](C)c1ccccc1 [Formula 7, Methoxycarbonyl-etomidate] | – | – | – | – | – | – | – | – | – | – | – | – | – | lower inhibitory effect | – | – | drastically decreased anesthetic effect | – |
| CCOC(=O)c1cccn1[C@H](C)c1ccccc1 [Formula 8] | – | – | – | – | – | – | – | – | – | – | – | – | – | little inhibition | – | – | decreased anesthetic activity | prolonged duration of action |
